According to US7183324B2, “2,3,4-substituted cyclopentanones as therapeutic agents” (Allergan, Inc., priority 2004, dated 2007):

What was measured:
HEP2 = molecular target: T1, HEP2 (Homo sapiens, UniProt P43116); assay: Radioligand binding, EP2 receptor; details: [3H]PGE2 5 nM, HEK-293 membranes
T1 construct: expressed in transfected cells; host or cells: HEK-293
Protocol: (§1) HEK-293 cells stably expressing the human or feline FP receptor, or EP1, EP2, or EP4 receptors were washed with TME buffer, scraped from the bottom of the flasks, and homogenized for 30 sec using a Brinkman PT 10/35 polytron. TME buffer was added to achieve a final 40 ml volume in the centrifuge tubes (the composition of TME is 100 mM TRIS base, 20 mM MgCl2, […]; 10N HCl is added to achieve a pH of 7.4).
(§2) The cell homogenate was centrifuged at 19000 r.p.m. for 20 min at 4° C. using a Beckman Ti-60 rotor. The resultant pellet was resuspended in TME buffer to give a final 1 mg/ml protein concentration, as determined by Biorad assay. Radioligand binding competition assays vs. [^3H-]17-phenyl PGF2α (5 nM) were performed in a 100 μl volume for 60 min. Binding reactions were started by adding plasma membrane fraction. The reaction was terminated by the addition of 4 ml ice-cold TRIS-HCl buffer and rapid filtration through glass fiber GF/B filters using a Brandel cell harvester. The filters were washed 3 times with ice-cold buffer and oven dried for one hour. Non-specific binding was determined with 10 uM unlabeled 17-phenyl PGF2α.
(§3) [^3H-] PGE2 (5 nM; specific activity 180 Ci mmol) was used as the radioligand for EP receptors. Binding studies employing EP1, EP2, EP3, EP4 were performed in duplicate in at least three separate experiments. A 200 μl assay volume was used. Incubations were for 60 min at 25° C. and were terminated by the addition of 4 ml of ice-cold 50 mM TRIS-HCl, followed by rapid filtration through Whatman GF/B filters and three additional 4 ml washes in a cell harvester (Brandel). Non-specific binding determined with 10^−5M of unlabeled PGE2.

HEP3D = molecular target: T2, HEP3D (Homo sapiens, UniProt P43115); assay: Radioligand binding, EP3 receptor; details: [3H]PGE2 5 nM
T2 sequence (P43115 1-374 isoform P43115-4): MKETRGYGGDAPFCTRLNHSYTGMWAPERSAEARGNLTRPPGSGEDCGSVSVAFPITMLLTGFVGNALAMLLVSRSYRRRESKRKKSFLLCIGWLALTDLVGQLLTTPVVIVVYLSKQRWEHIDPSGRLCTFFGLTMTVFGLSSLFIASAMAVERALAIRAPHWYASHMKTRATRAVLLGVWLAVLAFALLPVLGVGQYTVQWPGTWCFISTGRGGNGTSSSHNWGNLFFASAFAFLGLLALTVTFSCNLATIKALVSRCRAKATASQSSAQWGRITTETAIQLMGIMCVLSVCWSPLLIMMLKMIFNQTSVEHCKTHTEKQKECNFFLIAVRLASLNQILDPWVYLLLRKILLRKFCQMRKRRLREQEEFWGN
Protocol: as §1, §2, §3

HEP4 = molecular target: T3, HEP4 (Homo sapiens, UniProt P35408); assay: Radioligand binding, EP4 receptor; details: [3H]PGE2 5 nM, HEK-293 membranes
T3 construct: expressed in transfected cells; host or cells: HEK-293
T3 sequence (P35408 whole entry): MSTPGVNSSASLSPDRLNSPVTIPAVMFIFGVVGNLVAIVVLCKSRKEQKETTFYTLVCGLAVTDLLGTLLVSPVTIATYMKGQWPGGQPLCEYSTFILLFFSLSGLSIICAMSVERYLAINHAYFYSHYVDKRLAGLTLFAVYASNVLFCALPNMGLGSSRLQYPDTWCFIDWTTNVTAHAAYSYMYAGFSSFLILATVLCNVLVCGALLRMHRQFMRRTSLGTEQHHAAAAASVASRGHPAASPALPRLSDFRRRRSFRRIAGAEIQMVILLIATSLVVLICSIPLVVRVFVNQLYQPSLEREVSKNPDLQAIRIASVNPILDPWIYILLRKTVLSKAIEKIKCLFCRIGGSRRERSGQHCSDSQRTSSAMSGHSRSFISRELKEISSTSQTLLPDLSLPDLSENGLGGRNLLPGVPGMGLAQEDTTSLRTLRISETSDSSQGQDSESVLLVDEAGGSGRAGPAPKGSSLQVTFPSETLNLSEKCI
Protocol: as §1, §2, §3

hEP2/Gqs5 = molecular target: T4, hEP2/Gqs5 (Homo sapiens, UniProt P43116); assay: FLIPR calcium signal, hEP2/Gqs5; assay type: cell-based; details: HEK-293 (EBNA) cells, read-out: FUNCTIONAL EC50 HEP2
T4 construct: expressed in transfected cells; host or cells: HEK-293 (EBNA)
T4 sequence (P43116 whole entry): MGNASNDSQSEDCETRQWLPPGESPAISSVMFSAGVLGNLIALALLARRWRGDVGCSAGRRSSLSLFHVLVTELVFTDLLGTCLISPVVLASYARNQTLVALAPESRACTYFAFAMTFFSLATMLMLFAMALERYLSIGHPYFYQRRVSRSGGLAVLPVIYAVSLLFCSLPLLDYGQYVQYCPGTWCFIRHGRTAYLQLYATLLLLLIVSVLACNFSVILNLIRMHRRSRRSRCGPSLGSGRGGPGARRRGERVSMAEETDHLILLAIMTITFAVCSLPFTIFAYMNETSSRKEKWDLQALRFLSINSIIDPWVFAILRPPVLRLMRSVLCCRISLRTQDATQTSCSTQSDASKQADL
Protocol: (§4) HEK-293 (EBNA) cells, stably expressing one type or subtype of recombinant human prostaglandin receptors (prostaglandin receptors expressed: hDP/Gqs5; hEP1; hEP2/Gqs5; hEP3A/Gqi5; hEP4/Gqs5; hFP; hIP; hTP), were cultured in 100 mm culture dishes in high-glucose DMEM medium containing 10% fetal bovine serum, 2 mM 1-glutamine, 250 μg/ml geneticin (G418) and 200 μg/ml hygromycin B as selection markers, and 100 units/ml penicillin G, 100 μg/ml streptomycin and 0.25 μg/ml amphotericin B. • (b) Calcium Signal Studies on the FLIPR™
(§5) Cells were seeded at a density of 5×10^4 cells per well in Biocoat® Poly-D-lysine-coated black-wall, clear-bottom 96-well plates (Becton-Dickinson) and allowed to attach overnight in an incubator at 37° C. Cells were then washed two times with HBSS-HEPES buffer (Hanks Balanced Salt Solution without bicarbonate and phenol red, 20 mM HEPES, pH 7.4) using a Denley Cellwash plate washer (Labsystems). After 45 minutes of dye-loading in the dark, using the calcium-sensitive dye Fluo-4 AM at a final concentration of 2 μM, plates were washed four times with HBSS-HEPES buffer to remove excess dye leaving 100 μl in each well. Plates were re-equilibrated to 37° C. for a few minutes.
(§6) Cells were excited with an Argon laser at 488 nm, and emission was measured through a 510–570 nm bandwidth emission filter (FLIPR™, Molecular Devices, Sunnyvale, Calif.). Drug solution was added in a 50 μl volume to each well to give the desired final concentration. The peak increase in fluorescence intensity was recorded for each well. On each plate, four wells each served as negative (HBSS-HEPES buffer) and positive controls (standard agonists: BW245C (hDP); PGE2 (hEP1; hEP2/Gqs5; hEP3A/Gqi5; hEP4/Gqs5); PGF2α (hFP); carbacyclin (hIP); U46619 (hTP), depending on receptor). The peak fluorescence change in each drug-containing well was then expressed relative to the controls.
Compounds were tested in a high-throughput (HTS) or concentration-response (CoRe) format. […]

hEP3A/Gqi5 = molecular target: T5, hEP3A/Gqi5 (Homo sapiens, UniProt P43115); assay: FLIPR calcium signal, hEP3A/Gqi5; assay type: cell-based; details: HEK-293 (EBNA) cells, read-out: FUNCTIONAL EC50 HEP3A
T5 construct: expressed in transfected cells; host or cells: HEK-293 (EBNA)
T5 sequence (P43115 1-390): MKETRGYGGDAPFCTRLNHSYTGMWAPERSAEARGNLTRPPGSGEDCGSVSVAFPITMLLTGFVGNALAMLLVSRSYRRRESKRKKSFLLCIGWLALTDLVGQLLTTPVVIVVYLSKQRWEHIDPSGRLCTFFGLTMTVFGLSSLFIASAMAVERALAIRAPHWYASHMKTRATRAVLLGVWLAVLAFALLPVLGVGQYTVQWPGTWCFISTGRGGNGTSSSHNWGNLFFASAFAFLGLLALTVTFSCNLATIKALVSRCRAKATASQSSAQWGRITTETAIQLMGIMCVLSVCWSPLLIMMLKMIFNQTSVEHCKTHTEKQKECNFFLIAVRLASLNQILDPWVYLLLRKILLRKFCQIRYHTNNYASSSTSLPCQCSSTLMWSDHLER
Protocol: as §4, §5, §6
(§7) Compounds were tested in a high-throughput (HTS) or concentration-response (CoRe) format. In the HTS format, forty-four compounds per plate were examined in duplicates at a concentration of 10^−5 M. To generate concentration-response curves, four compounds per plate were tested in duplicates in a concentration range between 10^−5 and 10^−11 M. The duplicate values were averaged. In either, HTS or CoRe format each compound was tested on at least 3 separate plates using cells from different passages to give an n≧3.

hEP4/Gqs5 = molecular target: T6, hEP4/Gqs5 (Homo sapiens, UniProt P35408); assay: FLIPR calcium signal, hEP4/Gqs5; assay type: cell-based; details: HEK-293 (EBNA) cells, read-out: FUNCTIONAL EC50 HEP4
T6 construct: expressed in transfected cells; host or cells: HEK-293 (EBNA)
T6 sequence (P35408 whole entry): as the sequence (P35408 whole entry) above
Protocol: as §4, §5, §6, §7

hTP = molecular target: T7, hTP (Homo sapiens, UniProt P21731); assay: FLIPR calcium signal, hTP; assay type: cell-based; details: HEK-293 (EBNA) cells, read-out: FUNCTIONAL EC50 HTP
T7 construct: expressed in transfected cells; host or cells: HEK-293 (EBNA)
T7 sequence (P21731 1-343): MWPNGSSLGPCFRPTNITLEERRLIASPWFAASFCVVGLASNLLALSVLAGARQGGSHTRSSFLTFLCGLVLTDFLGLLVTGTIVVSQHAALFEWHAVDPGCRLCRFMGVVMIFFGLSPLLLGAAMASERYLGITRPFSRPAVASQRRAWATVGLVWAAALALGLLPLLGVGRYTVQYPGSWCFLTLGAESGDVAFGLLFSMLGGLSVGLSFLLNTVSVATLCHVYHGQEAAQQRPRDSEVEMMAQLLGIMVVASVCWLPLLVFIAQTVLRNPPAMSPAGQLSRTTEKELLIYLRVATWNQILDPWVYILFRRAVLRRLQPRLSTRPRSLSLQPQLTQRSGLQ
Protocol: as §4, §5, §6, §7

hIP = molecular target: T8, hIP (Homo sapiens, UniProt P43119); assay: FLIPR calcium signal, hIP; assay type: cell-based; details: HEK-293 (EBNA) cells, read-out: FUNCTIONAL EC50 HIP
T8 construct: expressed in transfected cells; host or cells: HEK-293 (EBNA)
T8 sequence (P43119 whole entry): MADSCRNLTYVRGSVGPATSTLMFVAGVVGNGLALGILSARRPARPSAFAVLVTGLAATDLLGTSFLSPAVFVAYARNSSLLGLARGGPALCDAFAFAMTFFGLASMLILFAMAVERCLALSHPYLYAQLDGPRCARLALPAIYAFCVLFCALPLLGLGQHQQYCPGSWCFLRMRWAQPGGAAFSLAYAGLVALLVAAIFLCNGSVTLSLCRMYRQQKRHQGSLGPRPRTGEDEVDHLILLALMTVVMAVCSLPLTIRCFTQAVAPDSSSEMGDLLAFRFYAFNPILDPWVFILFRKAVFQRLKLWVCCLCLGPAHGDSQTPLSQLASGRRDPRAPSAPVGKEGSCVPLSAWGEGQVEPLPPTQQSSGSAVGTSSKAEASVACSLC
Protocol: as §4
(§8) Cells were seeded at a density of 5×10^4 cells per well in Biocoat® Poly-D-lysine-coated black-wall, clear-bottom 96-well plates (Becton-Dickinson) and allowed to attach overnight in an incubator at 37° C. Cells were then washed two times with HBSS-HEPES buffer (Hanks Balanced Salt Solution without bicarbonate and phenol red, 20 mM HEPES, pH 7.4) using a Denley Cellwash plate washer (Labsystems). […]
(§9) Cells were excited with an Argon laser at 488 nm, and emission was measured through a 510–570 nm bandwidth emission filter (FLIPR™, Molecular Devices, Sunnyvale, Calif.). […] The peak increase in fluorescence intensity was recorded for each well. […] The peak fluorescence change in each drug-containing well was then expressed relative to the controls. […]

hEP1 = molecular target: T9, hEP1 (Homo sapiens, UniProt P34995); assay: FLIPR calcium signal, hEP1; assay type: cell-based; details: HEK-293 (EBNA) cells, read-out: FUNCTIONAL EC50 HEP1
T9 construct: expressed in transfected cells; host or cells: HEK-293 (EBNA)
T9 sequence (P34995 1-402): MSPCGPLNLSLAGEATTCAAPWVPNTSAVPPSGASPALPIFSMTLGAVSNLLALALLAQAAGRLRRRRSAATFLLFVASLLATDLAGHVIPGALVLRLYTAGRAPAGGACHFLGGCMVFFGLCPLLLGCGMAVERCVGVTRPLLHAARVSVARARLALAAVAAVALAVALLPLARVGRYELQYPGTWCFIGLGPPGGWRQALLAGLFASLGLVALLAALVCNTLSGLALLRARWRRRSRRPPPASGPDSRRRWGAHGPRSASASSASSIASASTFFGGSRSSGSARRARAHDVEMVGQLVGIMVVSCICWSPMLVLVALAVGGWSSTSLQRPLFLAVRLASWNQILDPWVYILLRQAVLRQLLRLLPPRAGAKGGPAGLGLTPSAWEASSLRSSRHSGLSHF
Protocol: as §4, §8, §9

hDP/Gqs5 = molecular target: T10, hDP/Gqs5 (Homo sapiens, UniProt Q13258); assay: FLIPR calcium signal, hDP/Gqs5; assay type: cell-based; details: HEK-293 (EBNA) cells, read-out: FUNCTIONAL EC50 HDP
T10 construct: expressed in transfected cells; host or cells: HEK-293 (EBNA)
T10 sequence (Q13258 1-359): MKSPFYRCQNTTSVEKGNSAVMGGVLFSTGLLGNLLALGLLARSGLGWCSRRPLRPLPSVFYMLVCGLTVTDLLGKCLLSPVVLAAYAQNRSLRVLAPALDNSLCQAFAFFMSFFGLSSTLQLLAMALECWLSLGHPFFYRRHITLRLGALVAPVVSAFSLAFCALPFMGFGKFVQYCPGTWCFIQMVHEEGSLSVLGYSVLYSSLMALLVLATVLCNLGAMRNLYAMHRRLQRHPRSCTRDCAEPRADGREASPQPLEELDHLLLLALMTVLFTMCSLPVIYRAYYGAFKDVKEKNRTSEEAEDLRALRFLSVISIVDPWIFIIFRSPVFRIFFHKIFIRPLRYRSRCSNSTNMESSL
Protocol: as §4, §8, §9

T1 sequence (P43116 whole entry): as the sequence (P43116 whole entry) above

IC50 (HEP2)	IC50 (HEP3D)	IC50 (HEP4)	EC50 (hEP2/Gqs5)	EC50 (hEP3A/Gqi5)	EC50 (hEP4/Gqs5)	EC50 (hTP)	EC50 (hIP)	EC50 (hEP1)	EC50 (hDP/Gqs5)	SMILES
600 nM	> 10000 nM	26 nM	> 10000 nM	> 10000 nM	7240 nM	3.7 nM	389 nM			O=C(O)CSCCCS[C@H]1C(=O)CC[C@@H]1/C=C/C(O)Cc1csc2ccccc12 (single isomer, unassigned) [drawing 55, {3-[2-(4-Benzo[b]thiophen-3-yl-3-hydroxy-but-1-enyl)-5-oxo-cyclopentylsulfanyl]-propylsulfanyl}-acetic acid]
3500 nM	> 10000 nM		> 10000 nM	> 10000 nM	6.8 nM	> 10000 nM				O=C(O)CSCCCS[C@H]1C(=O)CC[C@@H]1/C=C/C(O)Cc1csc2ccccc12 (single isomer, unassigned) [drawing 56, {3-[2-(4-Benzo[b]thiophen-3-yl-3-hydroxy-but-1-enyl)-5-oxo-cyclopentylsulfanyl]-propylsulfanyl}-acetic acid]
2200 nM		20 nM	1220 nM	16 nM	1.6 nM			> 10000 nM	> 10000 nM	CCCCC[C@H](O)/C=C/[C@H]1CCC(=O)[C@@H]1SCCCSCC(=O)O [{3-[(1R,2R)-2-((E)-(S)-3-Hydroxy-oct-1-enyl)-5-oxo-cyclopentylsulfanyl]-propylsulfanyl}-acetic acid]
